Data as given in the supplement of paper PMC10883282.
± gives the standard deviation of the averaged measurements.

Columns and labels:
Test in all cases: relative viability vs DMSO control (72 h) (fraction); higher = more viable cells
A204 = tested on: A204
In short: (§1)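 Sarcoma cell lines were seeded in 384-well plates at densities chosen for 80–90% confluence, then 24 h later given 2.5 µl of serially diluted compound drawn from source plates spanning 10 mM to 0.0002 mM. They were held 72 h at 37 °C, 5% CO2, with 0.1% DMSO vehicle and a 5 µM positive control included. Relative viability was read with ATPLite as percent growth and averaged over up to triplicate wells. Rescaling placed full at 1 and none at 0.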

G401 = tested on: G401
In short: as §1

HS729 = tested on: HS729
In short: as §1

KHOS-240S = tested on: KHOS-240S
In short: as §1

MES-SA = tested on: MES-SA
In short: as §1

RD = tested on: RD
In short: as §1

SK-ES-1 = tested on: SK-ES-1
In short: as §1

SK-LMS-1 = tested on: SK-LMS-1
In short: as §1

SW1353 = tested on: SW1353
In short: as §1

SW872 = tested on: SW872
In short: as §1

SW982 = tested on: SW982
In short: as §1

VA-ES-BJ = tested on: VA-ES-BJ
In short: as §1

CC1(C)CC=C(c2nc(C3CC(C)(C)OC(C)(C)C3)ccc2NC(=O)c2nc(C#N)c[nH]2)CC1 [Edicotinib]
Settings | relative viability
A204, 0.00017 µM | 1.08 ± 0.048
A204, 0.00051 µM | 1.06 ± 0.049
A204, 0.00152 µM | 1.06 ± 0.066
A204, 0.00457 µM | 1.05 ± 0.029
A204, 0.01372 µM | 1.08 ± 0.048
A204, 0.04115 µM | 1.06 ± 0.077
A204, 0.1235 µM | 1.03 ± 0.048
A204, 0.3704 µM | 1.05 ± 0.078
A204, 1.111 µM | 1.04 ± 0.051
A204, 3.333 µM | 1.07 ± 0.042
A204, 10 µM | 1.08 ± 0.03
G401, 0.00017 µM | 1.02 ± 0.033
G401, 0.00051 µM | 0.99 ± 0.039
G401, 0.00152 µM | 1 ± 0.034
G401, 0.00457 µM | 1.01 ± 0.042
G401, 0.01372 µM | 1.04 ± 0.011
G401, 0.04115 µM | 0.9919 ± 0.0064
G401, 0.1235 µM | 1.02 ± 0.053
G401, 0.3704 µM | 1 ± 0.017
G401, 1.111 µM | 0.952 ± 0.021
G401, 3.333 µM | 0.989 ± 0.052
G401, 10 µM | 0.929 ± 0.018
HS729, 0.00017 µM | 1 ± 0.015
HS729, 0.00051 µM | 0.931 ± 0.048
HS729, 0.00152 µM | 0.953 ± 0.079
HS729, 0.00457 µM | 0.909 ± 0.028
HS729, 0.01372 µM | 0.89 ± 0.022
HS729, 0.04115 µM | 0.902 ± 0.038
HS729, 0.1235 µM | 0.924 ± 0.0098
HS729, 0.3704 µM | 0.9 ± 0.0098
HS729, 1.111 µM | 0.894 ± 0.046
HS729, 3.333 µM | 0.933 ± 0.059
HS729, 10 µM | 0.999 ± 0.02
KHOS-240S, 0.00017 µM | 1.03 ± 0.027
KHOS-240S, 0.00051 µM | 1.01 ± 0.026
KHOS-240S, 0.00152 µM | 1.02 ± 0.03
KHOS-240S, 0.00457 µM | 1.05 ± 0.038
KHOS-240S, 0.01372 µM | 1.01 ± 0.015
KHOS-240S, 0.04115 µM | 1.05 ± 0.038
KHOS-240S, 0.1235 µM | 1.05 ± 0.021
KHOS-240S, 0.3704 µM | 1.05 ± 0.062
KHOS-240S, 1.111 µM | 1.118 ± 0.011
KHOS-240S, 3.333 µM | 1.06 ± 0.035
KHOS-240S, 10 µM | 0.841 ± 0.29
MES-SA, 0.00017 µM | 0.945 ± 0.025
MES-SA, 0.00051 µM | 0.962 ± 0.039
MES-SA, 0.00152 µM | 0.935 ± 0.022
MES-SA, 0.00457 µM | 0.939 ± 0.035
MES-SA, 0.01372 µM | 0.9423 ± 0.0085
MES-SA, 0.04115 µM | 0.93 ± 0.017
MES-SA, 0.1235 µM | 0.909 ± 0.025
MES-SA, 0.3704 µM | 0.92 ± 0.021
MES-SA, 1.111 µM | 0.868 ± 0.017
MES-SA, 3.333 µM | 0.879 ± 0.019
MES-SA, 10 µM | 0.887 ± 0.021
RD, 0.00017 µM | 1.123 ± 0.0066
RD, 0.00051 µM | 1.09 ± 0.02
RD, 0.00152 µM | 1.12 ± 0.01
RD, 0.00457 µM | 1.07 ± 0.065
RD, 0.01372 µM | 1.07 ± 0.058
RD, 0.04115 µM | 1.12 ± 0.025
RD, 0.1235 µM | 1.1 ± 0.07
RD, 0.3704 µM | 1.1 ± 0.056
RD, 1.111 µM | 1.07 ± 0.049
RD, 3.333 µM | 1.05 ± 0.03
RD, 10 µM | 1.06 ± 0.085
SK-ES-1, 0.00017 µM | 1.04 ± 0.017
SK-ES-1, 0.00051 µM | 1.06 ± 0.043
SK-ES-1, 0.00152 µM | 1.04 ± 0.03
SK-ES-1, 0.00457 µM | 1.01 ± 0.035
SK-ES-1, 0.01372 µM | 1.04 ± 0.033
SK-ES-1, 0.04115 µM | 1.06 ± 0.044
SK-ES-1, 0.1235 µM | 1.04 ± 0.014
SK-ES-1, 0.3704 µM | 1 ± 0.026
SK-ES-1, 1.111 µM | 0.986 ± 0.026
SK-ES-1, 3.333 µM | 0.958 ± 0.05
SK-ES-1, 10 µM | 0.969 ± 0.032
SK-LMS-1, 0.00017 µM | 1.01 ± 0.047
SK-LMS-1, 0.00051 µM | 1.02 ± 0.036
SK-LMS-1, 0.00152 µM | 1.04 ± 0.048
SK-LMS-1, 0.00457 µM | 1.04 ± 0.081
SK-LMS-1, 0.01372 µM | 1.07 ± 0.024
SK-LMS-1, 0.04115 µM | 1.05 ± 0.041
SK-LMS-1, 0.1235 µM | 0.995 ± 0.02
SK-LMS-1, 0.3704 µM | 0.997 ± 0.052
SK-LMS-1, 1.111 µM | 0.929 ± 0.044
SK-LMS-1, 3.333 µM | 1.04 ± 0.04
SK-LMS-1, 10 µM | 1.013 ± 0.0086
SW872, 0.00017 µM | 1.01 ± 0.039
SW872, 0.00051 µM | 0.994 ± 0.042
SW872, 0.00152 µM | 0.992 ± 0.034
SW872, 0.00457 µM | 1 ± 0.053
SW872, 0.01372 µM | 1.01 ± 0.049
SW872, 0.04115 µM | 0.997 ± 0.031
SW872, 0.1235 µM | 1.01 ± 0.063
SW872, 0.3704 µM | 1.04 ± 0.027
SW872, 1.111 µM | 1.06 ± 0.017
SW872, 3.333 µM | 1.07 ± 0.019
SW872, 10 µM | 1.08 ± 0.035
SW982, 0.00017 µM | 1.05 ± 0.027
SW982, 0.00051 µM | 1.04 ± 0.043
SW982, 0.00152 µM | 1.07 ± 0.043
SW982, 0.00457 µM | 1.07 ± 0.054
SW982, 0.01372 µM | 1.08 ± 0.045
SW982, 0.04115 µM | 1.064 ± 0.0075
SW982, 0.1235 µM | 1.05 ± 0.019
SW982, 0.3704 µM | 1.066 ± 0.0053
SW982, 1.111 µM | 1.07 ± 0.03
SW982, 3.333 µM | 1.07 ± 0.032
SW982, 10 µM | 1.07 ± 0.017
SW1353, 0.00017 µM | 0.973 ± 0.056
SW1353, 0.00051 µM | 0.987 ± 0.023
SW1353, 0.00152 µM | 0.958 ± 0.015
SW1353, 0.00457 µM | 0.9936 ± 0.0062
SW1353, 0.01372 µM | 0.9624 ± 0.0069
SW1353, 0.04115 µM | 0.965 ± 0.026
SW1353, 0.1235 µM | 0.96 ± 0.05
SW1353, 0.3704 µM | 1.03 ± 0.048
SW1353, 1.111 µM | 1.09 ± 0.016
SW1353, 3.333 µM | 1.08 ± 0.044
SW1353, 10 µM | 1.098 ± 0.0084
VA-ES-BJ, 0.00017 µM | 1.04 ± 0.073
VA-ES-BJ, 0.00051 µM | 1.05 ± 0.053
VA-ES-BJ, 0.00152 µM | 1.04 ± 0.032
VA-ES-BJ, 0.00457 µM | 1.06 ± 0.017
VA-ES-BJ, 0.01372 µM | 1.03 ± 0.066
VA-ES-BJ, 0.04115 µM | 0.98 ± 0.094
VA-ES-BJ, 0.1235 µM | 0.977 ± 0.1
VA-ES-BJ, 0.3704 µM | 1.03 ± 0.047
VA-ES-BJ, 1.111 µM | 1.04 ± 0.066
VA-ES-BJ, 3.333 µM | 1.05 ± 0.02
VA-ES-BJ, 10 µM | 1.04 ± 0.039
